Measured values from the supplement of paper PMC10307832.

Key:
Assay in all cases: relative viability (nuclei count vs DMSO), 5 days (fraction); higher = more cells survive
ABC-1 = tested on: ABC-1
Outline: (§1)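 Cells from lung cancer lines were seeded into 1536-well plates and, one day later, dosed by pin tool. Treatments were either a single drug or a fixed dose of an anchor drug with five library-drug doses (not always all listed) in √10 steps. After 5 days, nuclei were stained in a one-step fixation (final 0.05% Triton X-100, 1% formaldehyde, 1 ug/ml Hoechst) and counted on 4× images, and relative viability is the treated-to-vehicle nuclei ratio, as the median of duplicate plates.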

CAL-12T = tested on: CAL-12T
Outline: as §1

COR-L 105 = tested on: COR-L 105
Outline: as §1

ChaGo-K-1 = tested on: ChaGo-K-1
Outline: as §1

EMC-BAC-2 = tested on: EMC-BAC-2
Outline: as §1

EPLC-272H = tested on: EPLC-272H
Outline: as §1

HCC-15 = tested on: HCC-15
Outline: as §1

HCC-78 = tested on: HCC-78
Outline: as §1

HOP-62 = tested on: HOP-62
Outline: as §1

LXF-289 = tested on: LXF-289
Outline: as §1

NCI-H1666 = tested on: NCI-H1666
Outline: as §1

NCI-H1755 = tested on: NCI-H1755
Outline: as §1

NCI-H1915 = tested on: NCI-H1915
Outline: as §1

NCI-H1975 = tested on: NCI-H1975
Outline: as §1

NCI-H2023 = tested on: NCI-H2023
Outline: as §1

NCI-H2085 = tested on: NCI-H2085
Outline: as §1

NCI-H2126 = tested on: NCI-H2126
Outline: as §1

NCI-H3122 = tested on: NCI-H3122
Outline: as §1

NCI-H322M = tested on: NCI-H322M
Outline: as §1

NCI-H358 = tested on: NCI-H358
Outline: as §1

NCI-H441 = tested on: NCI-H441
Outline: as §1

UMC-11 = tested on: UMC-11
Outline: as §1

SMILES: CC(=O)O[C@@]12CO[C@@H]1C[C@H](O)[C@@]1(C)C(=O)[C@H](O)C3=C(C)[C@@H](OC(=O)[C@H](O)[C@@H](NC(=O)OC(C)(C)C)c4ccccc4)C[C@@](O)([C@@H](OC(=O)c4ccccc4)[C@H]21)C3(C)C [Docetaxel] + COc1cc2c(Oc3ccc(NC(=O)C4(C(=O)Nc5ccc(F)cc5)CC4)cc3F)ccnc2cc1OCCCN1CCOCC1 [Foretinib] (partner 0.25 µM)
- relative viability (ABC-1; first compound 0.0002 µM): 1.16
- relative viability (ABC-1; first compound 0.000632 µM): 1.18
- relative viability (ABC-1; first compound 0.002 µM): 0.333
- relative viability (ABC-1; first compound 0.006325 µM): 0.351
- relative viability (ABC-1; first compound 0.02 µM): 0.216
- relative viability (CAL-12T; first compound 0.0002 µM): 0.979
- relative viability (CAL-12T; first compound 0.000632 µM): 0.729
- relative viability (CAL-12T; first compound 0.002 µM): 0.238
- relative viability (CAL-12T; first compound 0.006325 µM): 0.216
- relative viability (CAL-12T; first compound 0.02 µM): 0.163
- relative viability (COR-L 105; first compound 0.0002 µM): 0.986
- relative viability (COR-L 105; first compound 0.000632 µM): 0.95
- relative viability (COR-L 105; first compound 0.002 µM): 0.487
- relative viability (COR-L 105; first compound 0.006325 µM): 0.475
- relative viability (COR-L 105; first compound 0.02 µM): 0.331
- relative viability (ChaGo-K-1; first compound 0.0002 µM): 0.89
- relative viability (ChaGo-K-1; first compound 0.000632 µM): 0.824
- relative viability (ChaGo-K-1; first compound 0.002 µM): 0.439
- relative viability (ChaGo-K-1; first compound 0.006325 µM): 0.329
- relative viability (ChaGo-K-1; first compound 0.02 µM): 0.174
- relative viability (EMC-BAC-2; first compound 0.0002 µM): 1.02
- relative viability (EMC-BAC-2; first compound 0.000632 µM): 0.948
- relative viability (EMC-BAC-2; first compound 0.002 µM): 0.36
- relative viability (EMC-BAC-2; first compound 0.006325 µM): 0.348
- relative viability (EMC-BAC-2; first compound 0.02 µM): 0.205
- relative viability (EPLC-272H; first compound 0.0002 µM): 0.7
- relative viability (EPLC-272H; first compound 0.000632 µM): 0.278
- relative viability (EPLC-272H; first compound 0.002 µM): 0.249
- relative viability (EPLC-272H; first compound 0.006325 µM): 0.0711
- relative viability (EPLC-272H; first compound 0.02 µM): 0.0667
- relative viability (HCC-15; first compound 0.0002 µM): 0.906
- relative viability (HCC-15; first compound 0.000632 µM): 0.472
- relative viability (HCC-15; first compound 0.002 µM): 0.233
- relative viability (HCC-15; first compound 0.006325 µM): 0.27
- relative viability (HCC-15; first compound 0.02 µM): 0.162
- relative viability (HCC-78; first compound 0.0002 µM): 0.634
- relative viability (HCC-78; first compound 0.000632 µM): 0.493
- relative viability (HCC-78; first compound 0.002 µM): 0.461
- relative viability (HCC-78; first compound 0.006325 µM): 0.42
- relative viability (HCC-78; first compound 0.02 µM): 0.34
- relative viability (HOP-62; first compound 0.0002 µM): 1.07
- relative viability (HOP-62; first compound 0.000632 µM): 0.732
- relative viability (HOP-62; first compound 0.002 µM): 0.427
- relative viability (HOP-62; first compound 0.006325 µM): 0.295
- relative viability (LXF-289; first compound 0.0002 µM): 0.977
- relative viability (LXF-289; first compound 0.000632 µM): 0.924
- relative viability (LXF-289; first compound 0.002 µM): 0.207
- relative viability (LXF-289; first compound 0.006325 µM): 0.147
- relative viability (LXF-289; first compound 0.02 µM): 0.0982
- relative viability (NCI-H1666; first compound 0.0002 µM): 0.853
- relative viability (NCI-H1666; first compound 0.000632 µM): 0.628
- relative viability (NCI-H1666; first compound 0.002 µM): 0.633
- relative viability (NCI-H1666; first compound 0.006325 µM): 0.614
- relative viability (NCI-H1666; first compound 0.02 µM): 0.372
- relative viability (NCI-H1755; first compound 0.0002 µM): 0.901
- relative viability (NCI-H1755; first compound 0.000632 µM): 0.88
- relative viability (NCI-H1755; first compound 0.002 µM): 0.564
- relative viability (NCI-H1755; first compound 0.006325 µM): 0.351
- relative viability (NCI-H1755; first compound 0.02 µM): 0.373
- relative viability (NCI-H1915; first compound 0.0002 µM): 1.15
- relative viability (NCI-H1915; first compound 0.000632 µM): 1.05
- relative viability (NCI-H1915; first compound 0.002 µM): 0.736
- relative viability (NCI-H1915; first compound 0.006325 µM): 0.262
- relative viability (NCI-H1915; first compound 0.02 µM): 0.179
- relative viability (NCI-H1975; first compound 0.0002 µM): 0.907
- relative viability (NCI-H1975; first compound 0.000632 µM): 0.586
- relative viability (NCI-H1975; first compound 0.002 µM): 0.353
- relative viability (NCI-H1975; first compound 0.02 µM): 0.105
- relative viability (NCI-H2023; first compound 0.0002 µM): 0.735
- relative viability (NCI-H2023; first compound 0.000632 µM): 0.868
- relative viability (NCI-H2023; first compound 0.002 µM): 0.111
- relative viability (NCI-H2023; first compound 0.006325 µM): 0.102
- relative viability (NCI-H2023; first compound 0.02 µM): 0.0789
- relative viability (NCI-H2085; first compound 0.0002 µM): 0.852
- relative viability (NCI-H2085; first compound 0.000632 µM): 0.965
- relative viability (NCI-H2085; first compound 0.002 µM): 0.568
- relative viability (NCI-H2085; first compound 0.006325 µM): 0.34
- relative viability (NCI-H2085; first compound 0.02 µM): 0.414
- relative viability (NCI-H2126; first compound 0.0002 µM): 1.08
- relative viability (NCI-H2126; first compound 0.000632 µM): 1.14
- relative viability (NCI-H2126; first compound 0.002 µM): 0.588
- relative viability (NCI-H2126; first compound 0.006325 µM): 0.456
- relative viability (NCI-H2126; first compound 0.02 µM): 0.228
- relative viability (NCI-H3122; first compound 0.0002 µM): 0.993
- relative viability (NCI-H3122; first compound 0.000632 µM): 0.901
- relative viability (NCI-H3122; first compound 0.002 µM): 0.761
- relative viability (NCI-H3122; first compound 0.006325 µM): 0.16
- relative viability (NCI-H3122; first compound 0.02 µM): 0.106
- relative viability (NCI-H322M; first compound 0.0002 µM): 0.928
- relative viability (NCI-H322M; first compound 0.000632 µM): 0.949
- relative viability (NCI-H322M; first compound 0.002 µM): 0.956
- relative viability (NCI-H322M; first compound 0.006325 µM): 0.702
- relative viability (NCI-H322M; first compound 0.02 µM): 0.463
- relative viability (NCI-H358; first compound 0.0002 µM): 0.66
- relative viability (NCI-H358; first compound 0.000632 µM): 0.217
- relative viability (NCI-H358; first compound 0.006325 µM): 0.122
- relative viability (NCI-H358; first compound 0.02 µM): 0.0708
- relative viability (NCI-H441; first compound 0.0002 µM): 1.12
- relative viability (NCI-H441; first compound 0.000632 µM): 0.725
- relative viability (NCI-H441; first compound 0.002 µM): 0.538
- relative viability (NCI-H441; first compound 0.006325 µM): 0.87
- relative viability (UMC-11; first compound 0.0002 µM): 0.934
- relative viability (UMC-11; first compound 0.000632 µM): 0.943
- relative viability (UMC-11; first compound 0.002 µM): 0.307
- relative viability (UMC-11; first compound 0.006325 µM): 0.245
- relative viability (UMC-11; first compound 0.02 µM): 0.186
